Test results: publication PMC11364541 (Nature Communications, 2024)

Molecular target: T1, SLC13A3 (Homo sapiens, UniProt Q8WWT9)
T1 sequence (Q8WWT9 1-602): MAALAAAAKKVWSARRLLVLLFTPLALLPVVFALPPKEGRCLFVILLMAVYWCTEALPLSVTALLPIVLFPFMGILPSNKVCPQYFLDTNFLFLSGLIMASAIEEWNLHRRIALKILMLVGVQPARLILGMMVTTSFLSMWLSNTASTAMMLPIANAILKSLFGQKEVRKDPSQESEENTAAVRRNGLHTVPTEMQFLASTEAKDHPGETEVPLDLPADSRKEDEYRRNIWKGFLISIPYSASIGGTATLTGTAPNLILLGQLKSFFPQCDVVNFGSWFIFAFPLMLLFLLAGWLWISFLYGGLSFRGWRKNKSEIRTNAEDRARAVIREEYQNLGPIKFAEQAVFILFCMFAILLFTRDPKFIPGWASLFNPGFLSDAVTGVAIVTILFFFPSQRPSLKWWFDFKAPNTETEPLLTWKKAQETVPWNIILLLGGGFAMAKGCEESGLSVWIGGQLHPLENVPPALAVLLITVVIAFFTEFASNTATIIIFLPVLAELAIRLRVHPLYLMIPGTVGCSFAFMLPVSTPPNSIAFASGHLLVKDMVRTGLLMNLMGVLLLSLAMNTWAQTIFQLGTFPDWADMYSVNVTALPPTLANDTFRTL
Test: inhibition of […]-succinate uptake in SLC13A3-transfected HEK293 cells
Assay type: cell-based

IC50: 1890 µM
Structure (SMILES): N[C@@H](CCC(=O)N[C@@H](CS)C(=O)NCC(=O)O)C(=O)O [GSH, glutathione]
